Test results published in patent US12364696B2, “Treatment of autoimmune disease” (priority 2019, dated 2025).
Like-named read-outs stand apart in the source and are kept apart here.

Tests used:
[1] = system: patients with alopecia areata; conditions: oral tofacitinib 5 mg twice daily for 3 months; cited from earlier work
[2] = system: patients with alopecia areata; conditions: oral tofacitinib 5 mg twice daily for 6 months; cited from earlier work
[3] = Pharmacokinetics of sublingual tofacitinib, plasma LC MS/MS; assay type: in vivo, human; conditions: for concentration at 24 h: other: sublingual
Method: Blood samples were left to coagulate at room temperature for 20 minutes before centrifuging at 3500 rotations per minute for 15 minutes. The resulting separated plasma was extracted and stored at −20 degrees Celsius prior to processing using the liquid chromatography tandem mass spectrometry (LC MS/MS) method.
The mobile phase consisted of (A) 5 mM ammonium acetate pH 4 and (B) methanol. The gradient profile developed was: 0-2.0 min, 90% A, 10% B; 2.0-3.0 min, 30% A, 70% B; 3.0-4.0 min, 90% A, 10% B. A Shimadzu LC MS/MS-8050 triple quadrupole mass spectrometer (Shimadzu, Kyoto, Japan) was used to perform the mass spectrometry. MS/MS analysis was performed in positive ion mode using electrospray ionization conditions.

[4] = system: patients with moderate to severe, treatment-resistant alopecia areata; conditions: for Mean change from baseline in Assessment of Quality of Life-8D (AQoL-8D) score at Week 28: n = 13; for Mean change from baseline in Alopecia Areata Symptom Impact Scale (AASIS) score at Week 28 - Global Symptom Impact Score / Mean change from baseline in Alopecia Areata Symptom Impact Scale (AASIS) score at Week 28 - Scalp Hair Loss Score: n = 14
[5] = system: male patients with alopecia areata of the beard (BAA)
[6] = oral tofacitinib; cited from earlier work
[7] = sublingual, 5 mg tablets, 3 months
[8] = sublingual, 5 mg tablets, 3 months, n = 16
[9] = sublingual, listed as sublingual tofacitinib
[10] = BAA subtype multiple patches, % of n = 45
[11] = BAA subtype solitary patch, % of n = 45
[12] = BAA subtype total beard loss, % of n = 45
[13] = all patients, n = 45 (21 oral, 24 sublingual)
[14] = degree of scalp hair regrowth Complete
[15] = degree of scalp hair regrowth Complete, % of n = 45
[16] = degree of scalp hair regrowth None
[17] = degree of scalp hair regrowth None, % of n = 45
[18] = degree of scalp hair regrowth Partial
[19] = degree of scalp hair regrowth Partial, % of n = 45

## C[C@@H]1CCN(C(=O)CC#N)C[C@@H]1N(C)c1ncnc2[nH]ccc12 [tofacitinib]
[1]
  Patients achieving a 50% or greater reduction in SALT score: 32%
[2]
  Response rate: 64.9%
[3]; Week 28, last dose, 15 patients
  Number of patients who achieved tmax at 0.5 hour: One
[3]; Week 28, pre-dose, 10 patient samples
  Trace plasma levels prior to the last dose (range): 0.5 to 10.0 ng/mL
[3]; human, plasma, 5 mg, sublingual, Week 28 (FIG. 5b), read-out: Estimated elimination half-life (plasma concentration halving from 29.14 ng/ml to 14.6 ng/ml) (converted)
  half-life: ~11 h
[3]; human, plasma, 5 mg, Week 16, likely spuriously elevated by the nocte dose
  concentration at 24 h: 7.39 ng/mL
[3]; human, plasma, 5 mg, Week 28, no nocte dose
  concentration at 24 h: 0.28 ng/mL
[3]; human, plasma, sublingual, 5 mg tablet, read-out: Average time (tmax) to maximum plasma concentration
  Tmax: 1 h
[3]; human, plasma, sublingual, 5 mg tablet, read-out: Maximum plasma concentration (Cmax), average
  Cmax: 43.2 ng/mL
[4]; human, in vivo
  Changes in blood biochemistry: no clinically significant changes
  Serious adverse events: no serious adverse events
  Withdrawals secondary to adverse events: no withdrawals secondary to adverse events
[4]; [7]
  Good grade respondents (50-75%), proportion: 1/16
  High grade respondents (75-100%), proportion: 1/16
  Low grade respondents (15-29% reduction in SALT score at Week 28), proportion: 3/16
  Mean reduction in SALT score of the two patients who achieved >50% reduction: 60.3%
  Medium grade respondents (30-49%), proportion: 1/16
  Participants achieving at least 1 grade improvement in eyebrow assessment scale at Week 28, proportion: 8/16
  Participants achieving at least 1 grade improvement in eyelash assessment scale at Week 28, proportion: 6/16
  Participants who achieved a 100% reduction in SALT score at Week 28: No participants
  Patients who achieved a >50% reduction in SALT score: 12.5%
[4]; [8]
  Mean reduction from baseline (Week 16) of SALT score at Week 28: 15.57%
  Participants achieving at least 1 grade improvement in eyebrow assessment scale at Week 28, percentage: 50%
  Participants achieving at least 1 grade improvement in eyelash assessment scale at Week 28, percentage: 37.5%
[4]; sublingual, 5 mg tablets, 3 months, n = 16, listed as sublingual tofacitinib
  Participants achieving at least 1 grade improvement in eyebrow assessment scale at Week 28, percentage: (50%)
[4]; sublingual, 5 mg tablets, Week 28 vs Week 16
  Total Treatment Response, proportion: 6/16
[4]; sublingual, 5 mg tablets, Week 28 vs Week 16, n = 16, listed as Sublingual tofacitinib
  Total Treatment Response, percentage: 37.5%
[4]; sublingual
  Mean change from baseline in Assessment of Quality of Life-8D (AQoL-8D) score at Week 28: 0.0148
  Mean change from baseline in Alopecia Areata Symptom Impact Scale (AASIS) score at Week 28 - Global Symptom Impact Score: 0.1306
  Mean change from baseline in Alopecia Areata Symptom Impact Scale (AASIS) score at Week 28 - Scalp Hair Loss Score: 2.2142
[4]; [9]
  Mean change from baseline in Assessment of Quality of Life-8D (AQoL-8D) score at Week 28: −0.0148
  Mean change from baseline in Alopecia Areata Symptom Impact Scale (AASIS) score at Week 28 - Global Symptom Impact Score: −0.1306
  Mean change from baseline in Alopecia Areata Symptom Impact Scale (AASIS) score at Week 28 - Scalp Hair Loss Score: −2.2142
[5]; 10 complete beard responders
  Duration of treatment after which complete beard regrowth was achieved (mean): 16.0 months
  Duration of treatment after which complete beard regrowth was achieved (range): 5.0-28.0 months
  Men with complete beard regrowth who also achieved complete scalp hair regrowth: 60%
[5]; BAA subtype multiple patches
  Degree of beard regrowth Complete, number of patients: 7
  Degree of beard regrowth None, number of patients: 8
  Degree of beard regrowth Partial, number of patients: 9
[5]; [10]
  Degree of beard regrowth Complete, % of patients: 15.6%
  Degree of beard regrowth None, % of patients: 17.8%
  Degree of beard regrowth Partial, % of patients: 20.0%
[5]; BAA subtype solitary patch
  Degree of beard regrowth Complete, number of patients: 0
  Degree of beard regrowth None, number of patients: 2
  Degree of beard regrowth Partial, number of patients: 0
[5]; [11]
  Degree of beard regrowth Complete, % of patients: 0.0%
  Degree of beard regrowth None, % of patients: 4.5%
  Degree of beard regrowth Partial, % of patients: 0.0%
[5]; BAA subtype total beard loss
  Degree of beard regrowth Complete, number of patients: 3
  Degree of beard regrowth None, number of patients: 6
  Degree of beard regrowth Partial, number of patients: 10
[5]; [12]
  Degree of beard regrowth Complete, % of patients: 6.7%
  Degree of beard regrowth None, % of patients: 13.3%
  Degree of beard regrowth Partial, % of patients: 22.2%
[5]; [13]
  Degree of beard regrowth Complete, % of patients: 22.2%
  Degree of beard regrowth Complete, number of patients: Ten
  Degree of beard regrowth None, % of patients: 35.6%
  Degree of beard regrowth None, number of patients: 16
  Degree of beard regrowth Partial, % of patients: 42.2%
  Degree of beard regrowth Partial, number of patients: 19
[5]; all patients, n = 45 (21 oral, 24 sublingual), listed as oral tofacitinib
  Degree of beard regrowth Complete, number of patients: 10
[5]; [14]
  Degree of beard regrowth Complete, number of patients: 6
  Degree of beard regrowth None, number of patients: 0
  Degree of beard regrowth Partial, number of patients: 1
[5]; [15]
  Degree of beard regrowth Complete, % of patients: 13.3%
  Degree of beard regrowth None, % of patients: 0.0%
  Degree of beard regrowth Partial, % of patients: 2.2%
[5]; [16]
  Degree of beard regrowth Complete, number of patients: 1
  Degree of beard regrowth None, number of patients: 14
  Degree of beard regrowth Partial, number of patients: 3
[5]; [17]
  Degree of beard regrowth Complete, % of patients: 2.2%
  Degree of beard regrowth None, % of patients: 31.1%
  Degree of beard regrowth Partial, % of patients: 6.7%
[5]; [18]
  Degree of beard regrowth Complete, number of patients: 3
  Degree of beard regrowth None, number of patients: 2
  Degree of beard regrowth Partial, number of patients: 15
[5]; [19]
  Degree of beard regrowth Complete, % of patients: 6.7%
  Degree of beard regrowth None, % of patients: 4.5%
  Degree of beard regrowth Partial, % of patients: 33.3%
[5]; n = 45, oral or sublingual
  Patients with mild adverse events (upper respiratory infections, elevated liver transaminases, fatigue, acne): 10
  Serious adverse events: no serious adverse events
[5]; n = 45, oral or sublingual, pre-tofacitinib 62.0 ± 38.9
  SALT score post-tofacitinib, Mean ± SD: 41.7 ± 38.5
[5]; n = 45, oral or sublingual, pre-tofacitinib 69.0 (2.0-100.0)
  SALT score post-tofacitinib, Median (Range): 29.0 (0.0-100.0)
[5]; oral, N = 21, beard
  Complete response, number of patients: 0
  No response, number of patients: 9
  Partial response, number of patients: 12
[5]; sublingual, n = 24, beard
  Complete response, number of patients: 10
  No response, number of patients: 7
  Partial response, number of patients: 7
[6]
  Reported elimination half-life: 3 h
